{
  "source": "EPA's ToxValDB 9.5",
  "key": {"Oryctolagus sp.": {"tested_on": "Oryctolagus sp.", "settings": "for LD50: acute; for LOAEL: Dutch-belted"}, "Rattus norvegicus [1]": {"tested_on": "Rattus norvegicus", "settings": "for LC50 / LD50: acute"}, "Rattus norvegicus [2]": {"tested_on": "Rattus norvegicus"}, "Rattus norvegicus [3]": {"tested_on": "Rattus norvegicus", "settings": "subchronic, oral; for NOEL: gavage, M, Sprague-Dawley"}, "Mus musculus": {"tested_on": "Mus musculus", "settings": "chronic; duration: 81 weeks; oral; M/F; B6C3F1; respiratory"}, "Rattus norvegicus [4]": {"tested_on": "Rattus norvegicus", "settings": "uterotrophic; duration: 3 days; injection; subcutaneous; Active"}, "[5]": {"settings": "developmental, duration: 10 days, oral, gavage, Sprague-Dawley"}, "[6]": {"settings": "subchronic, duration: 30 days, oral, diet, Sprague-Dawley"}, "[7]": {"settings": "reproduction developmental, oral, gavage, Sprague-Dawley, generation: F1"}, "[8]": {"settings": "chronic, duration: 6 months, inhalation, Sprague-Dawley"}, "[9]": {"settings": "short-term, duration: 14 days, oral, gavage, F, Fischer 344"}, "[10]": {"settings": "short-term, duration: 14 days, oral, gavage, M, Fischer 344"}, "[11]": {"settings": "subchronic, duration: 13 weeks, inhalation, F, Fischer 344"}, "[12]": {"settings": "subchronic, duration: 13 weeks, inhalation, Fischer 344"}, "[13]": {"settings": "subchronic, duration: 13 weeks, oral, gavage, F, Fischer 344"}, "[14]": {"settings": "subchronic, duration: 13 weeks, oral, gavage, Fischer 344"}},
  "note": "“And” between values parts separate entries of the source, which are not always exact repeats. Identical values can stand only once.",
  "data": [
    {"smiles": "CN1C(=O)c2ccc(Oc3ccc(C(C)(C)c4ccc(Oc5ccc6c(c5)C(=O)N(C)C6=O)cc4)cc3)cc2C1=O", "values": [
      {"measurement": "NOAEC", "setting": "Oryctolagus sp.; developmental, duration: 12 days, oral, gavage, New Zealand", "value": "> 1000", "unit": "mg/kg-day"},
      {"measurement": "NOAEL", "setting": "Oryctolagus sp.; reproduction developmental, duration: 12 days, oral, gavage, F, New Zealand", "value": "> 1000", "unit": "mg/kg-day"},
      {"measurement": "NOAEC", "setting": "Oryctolagus sp.; reproduction developmental, duration: 13 days, oral, gavage, F, New Zealand", "value": "> 1000", "unit": "mg/kg-day"},
      {"measurement": "NOAEC", "setting": "Oryctolagus sp.; reproduction developmental, duration: 13 days, oral, gavage, New Zealand", "value": "> 1000", "unit": "mg/kg-day"},
      {"measurement": "NOAEL", "setting": "Rattus norvegicus [1]; [5]", "value": "> 1000", "unit": "mg/kg-day"},
      {"measurement": "NOAEL", "setting": "Rattus norvegicus [1]; reproduction developmental, duration: 4 weeks, oral, gavage, Sprague-Dawley, generation: F0", "value": "> 1000", "unit": "mg/kg-day"},
      {"measurement": "NOAEL", "setting": "Rattus norvegicus [1]; reproduction developmental, duration: 4 weeks, oral, gavage, Sprague-Dawley, generation: F1", "value": "> 1000", "unit": "mg/kg-day"},
      {"measurement": "NOAEL", "setting": "Rattus norvegicus [1]; reproduction developmental, duration: 10 days, oral, gavage, Crl:CD(SD) BR", "value": "> 1000", "unit": "mg/kg-day"},
      {"measurement": "LOAEL (% diet)", "setting": "Rattus norvegicus [1]; [6]", "value": "> 4"},
      {"measurement": "NOAEL", "setting": "Rattus norvegicus [1]; [6]", "value": "≥ 2750 mg/kg-day and ≤ 3160 mg/kg-day"},
      {"measurement": "NOAEL (% diet)", "setting": "Rattus norvegicus [1]; [6]", "value": 4}
    ]},
    {"smiles": "CCCBr", "note": "[1-Bromopropane]", "values": [
      {"measurement": "NOAEL", "setting": "Rattus norvegicus [2]; short-term, duration: 3 weeks, inhalation, whole body, M, F-344, neurological", "value": 50.3, "unit": "mg/m3"}
    ]},
    {"smiles": "Cc1cccc2ccccc12", "note": "[1-Methylnaphthalene]", "values": [
      {"measurement": "NOEL", "setting": "Rattus norvegicus [3]; Absolute Organ Weight: Liver increase + Relative Organ Weight: Liver increase", "value": 50, "unit": "mg/kg-day"},
      {"measurement": "LOAEL", "setting": "Mus musculus", "value": 71.6, "unit": "mg/kg-day"}
    ]},
    {"smiles": "CCCCC(CC)CO[N+](=O)[O-]", "note": "(stereo not drawn) [2-Ethylhexyl nitrate]", "values": [
      {"measurement": "NOAEL", "setting": "Oryctolagus sp.; short-term, duration: 15 days, dermal, semiocclusive, Albino", "value": "> 500", "unit": "mg/kg-day"},
      {"measurement": "NOAEL", "setting": "Rattus norvegicus [1]; reproduction developmental, oral, gavage, Sprague-Dawley, generation: F0", "value": 20, "unit": "mg/kg-day"},
      {"measurement": "NOAEL", "setting": "Rattus norvegicus [1]; [7]", "value": 100, "unit": "mg/kg-day"},
      {"measurement": "NOAEL", "setting": "Rattus norvegicus [1]; short-term, duration: 14 days, inhalation, Sprague-Dawley", "value": 301, "unit": "mg/m3"},
      {"measurement": "NOAEL", "setting": "Rattus norvegicus [1]; short-term, duration: 28 days, oral, gavage, Sprague-Dawley", "value": 20, "unit": "mg/kg-day"}
    ]},
    {"smiles": "Cc1ccccn1", "note": "[2-Methylpyridine]", "values": [
      {"measurement": "LD50", "setting": "Oryctolagus sp.; dermal", "value": "≥ 252 mg/kg and ≤ 500 mg/kg"},
      {"measurement": "LD50", "setting": "Oryctolagus sp.; dermal, occlusive, New Zealand", "value": "≥ 200 mg/kg and ≤ 316 mg/kg"},
      {"measurement": "LC50", "setting": "Rattus norvegicus [1]; inhalation", "value": "≥ 7620 mg/m3 and ≤ 15200 mg/m3"},
      {"measurement": "LC50", "setting": "Rattus norvegicus [1]; inhalation, Sprague-Dawley", "value": "< 13200", "unit": "mg/m3"},
      {"measurement": "LD50", "setting": "Rattus norvegicus [1]; oral, gavage, Sprague-Dawley", "value": "810 mg/kg and > 950 mg/kg"},
      {"measurement": "LOAEL", "setting": "Rattus norvegicus [1]; [8]", "value": "> 381", "unit": "mg/m3"},
      {"measurement": "NOAEL", "setting": "Rattus norvegicus [1]; [8]", "value": "≥ 381", "unit": "mg/m3"}
    ]},
    {"smiles": "CC(C)(c1ccc(Oc2ccc3c(c2)C(=O)OC3=O)cc1)c1ccc(Oc2ccc3c(c2)C(=O)OC3=O)cc1", "note": "[4,4'-(4,4'-Isopropylidenediphenoxy)bisphthalic dianhydride]", "values": [
      {"measurement": "LD50", "setting": "Oryctolagus sp.; dermal, New Zealand", "value": "> 2000", "unit": "mg/kg"},
      {"measurement": "LD50", "setting": "Oryctolagus sp.; dermal, occlusive, New Zealand", "value": "> 2000", "unit": "mg/kg"},
      {"measurement": "LD50", "setting": "Rattus norvegicus [1]; oral, gavage, Spartan", "value": "> 5000", "unit": "mg/kg"},
      {"measurement": "LD50", "setting": "Rattus norvegicus [1]; oral, gavage, Sprague-Dawley", "value": "> 5000", "unit": "mg/kg"},
      {"measurement": "NOAEL", "setting": "Rattus norvegicus [1]; [5]", "value": "> 1000", "unit": "mg/kg-day"},
      {"measurement": "NOAEL", "setting": "Rattus norvegicus [1]; reproduction developmental, oral, gavage, Sprague-Dawley", "value": "> 1000", "unit": "mg/kg-day"},
      {"measurement": "NOAEL", "setting": "Rattus norvegicus [1]; [7]", "value": "> 1000", "unit": "mg/kg-day"},
      {"measurement": "LOAEL (% diet)", "setting": "Rattus norvegicus [1]; [6]", "value": "> 4"},
      {"measurement": "NOAEL (% diet)", "setting": "Rattus norvegicus [1]; [6]", "value": 4}
    ]},
    {"smiles": "Nc1ccc(Cc2ccc(N)cc2)cc1", "note": "[4,4'-Diaminobiphenyl methane]", "values": [
      {"measurement": "NOAEL", "setting": "Rattus norvegicus [3]; duration: 90 days, drinking water, M/F, Tif / RAlf, Deaths + Body Weight Changes: Weight gain + Food Consumption: decrease + Water Consumption: decrease + Hematology: RBC decrease, HGB …", "value": "< 12.2", "unit": "mg/kg-day"},
      {"measurement": "LOAEL", "setting": "Rattus norvegicus [2]; acute, duration: 1 days, oral, gavage, M, Sprague-Dawley, hepatic", "value": 25, "unit": "mg/kg-day"},
      {"measurement": "NOAEL", "setting": "Rattus norvegicus [2]; subchronic, duration: 12 weeks, oral, gavage, M/F, Wistar, hepatic", "value": 8.3, "unit": "mg/kg-day"}
    ]},
    {"smiles": "CCc1ccc(C)cc1", "note": "[4-Ethyltoluene]", "values": [
      {"measurement": "LD50", "setting": "Oryctolagus sp.; dermal, occlusive, New Zealand", "value": "> 5000", "unit": "mg/kg"},
      {"measurement": "LOAEL", "setting": "Oryctolagus sp.; developmental, oral, gavage", "value": "> 200", "unit": "mg/kg-day"},
      {"measurement": "LOAEL", "setting": "Oryctolagus sp.; reproduction developmental, oral, gavage, F", "value": 250, "unit": "mg/kg-day"},
      {"measurement": "LC50", "setting": "Rattus norvegicus [1]; inhalation, Sprague-Dawley", "value": "> 19200", "unit": "mg/m3"},
      {"measurement": "LD50", "setting": "Rattus norvegicus [1]; oral, gavage, Sprague-Dawley", "value": 4850, "unit": "mg/kg"},
      {"measurement": "NOAEL", "setting": "Rattus norvegicus [1]; developmental, duration: 20 days, oral, gavage", "value": "> 200", "unit": "mg/kg-day"},
      {"measurement": "LOAEL", "setting": "Rattus norvegicus [1]; [9]", "value": 400, "unit": "mg/kg-day"},
      {"measurement": "NOAEL", "setting": "Rattus norvegicus [1]; [9]", "value": 200, "unit": "mg/kg-day"},
      {"measurement": "LOAEL", "setting": "Rattus norvegicus [1]; [10]", "value": 400, "unit": "mg/kg-day"},
      {"measurement": "NOAEL", "setting": "Rattus norvegicus [1]; [10]", "value": 200, "unit": "mg/kg-day"},
      {"measurement": "LOAEL", "setting": "Rattus norvegicus [1]; [11]", "value": 4810, "unit": "mg/m3"},
      {"measurement": "NOAEL", "setting": "Rattus norvegicus [1]; [11]", "value": 1500, "unit": "mg/m3"},
      {"measurement": "LOAEL", "setting": "Rattus norvegicus [1]; [12]", "value": 4810, "unit": "mg/m3"},
      {"measurement": "NOAEL", "setting": "Rattus norvegicus [1]; [12]", "value": 1500, "unit": "mg/m3"},
      {"measurement": "LOAEL", "setting": "Rattus norvegicus [1]; [13]", "value": 300, "unit": "mg/kg-day"},
      {"measurement": "NOAEL", "setting": "Rattus norvegicus [1]; [13]", "value": 100, "unit": "mg/kg-day"},
      {"measurement": "LOAEL", "setting": "Rattus norvegicus [1]; [14]", "value": 300, "unit": "mg/kg-day"},
      {"measurement": "NOAEL", "setting": "Rattus norvegicus [1]; [14]", "value": 100, "unit": "mg/kg-day"}
    ]},
    {"smiles": "Oc1ccc(-c2ccccc2)cc1", "note": "[4-Phenylphenol]", "values": [
      {"measurement": "NOEL", "setting": "Rattus norvegicus [3]; Body Weight Changes: Reduced gain + Food Consumption: decrease + Hematology: WBC increase, NeutrophilSegment(%) decrease, Lymphocyte(%) …", "value": 30, "unit": "mg/kg-day"},
      {"measurement": "LEL", "setting": "Rattus norvegicus [4]", "value": 10, "unit": "mg/kg-day"}
    ]}
  ]
}
